Assay results from the METLIN SMRT retention time set (Domingo-Almenara et al. 2019).

Assay: gradient 5% acetonitrile 3 min, to 50% in 2 min, to 85% in 15 min, held 3 min, 100 µL/min
Settings: column: Zorbax Extend-C18 2.1 x 50 mm; eluents: water / acetonitrile, 0.1% formic acid
How it was run: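 The mobile phases were water and acetonitrile, each with 0.1% formic acid, pumped at 100 μL/min through a Zorbax Extend-C18 column (2.1 × 50 mm, 1.8 μm). Pure standards were injected as mixtures of ~100 molecules and detected by a quadrupole time-of-flight mass spectrometer in positive and negative ionization mode. Retention time came from computationally picked adduct peaks, each inspected by hand.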

RP-LC retention time [s]	Compound
646	CCCNC(=O)c1cc(C)nc2ccc(F)cc12
919	O=C(Cn1cnc2c(sc3nc(-c4ccccc4)ccc32)c1=O)NCc1cccs1
730	COc1ccc(C2C(C(=O)NC(C)C)c3ccccc3C(=O)N2C)cc1 (stereo not given)
842	Cc1cccc(-n2c(=O)c3c(cc(C)n3C)n(CC(=O)Nc3ccccc3Cl)c2=O)c1
742	COc1ccc(-c2nc3ccc(Br)cn3c2Nc2ccc(C)cc2)cc1O
872	Cc1ccccc1C(=O)Nc1ccc2c(c1)Sc1ncccc1C(=O)N2C(C)C
780	O=C(CSc1nnc(-c2cccnc2)o1)c1ccc(OC(F)F)cc1
917	O=c1c2nnc3c(-c4ccccc4)cnn3c2ccn1CCc1c[nH]c2ccccc12
858	CCS(=O)(=O)c1nc2ccc(NS(=O)(=O)c3ccccc3Cl)cc2s1
760	COc1cccc(-c2cc(C(N)=O)c3ccccc3n2)c1
758	COc1cccc(N2CCN(S(=O)(=O)c3cc4[nH]c(=O)[nH]c4cc3C)CC2)c1
1090	Cc1ccc(C(C)NC(=O)C2CCN(c3nccnc3Oc3ccccc3)CC2)c(C)c1 (stereo not given)
930	COC(=O)c1cccc(N2C=C(C#N)S(=O)(=O)c3ccc(Cl)cc32)c1
813	Cc1nn(CC(=O)NCc2cccs2)c(=O)c2nc(-c3ccccc3)sc12
943	COCCn1cc(C(=O)N2CCCc3ccccc32)c2nn(-c3ccccc3)c(=O)c-2c1
842	COc1ccc(NC(=O)Cn2c(=O)n(-c3ccccc3)c(=O)c3c2cc(C)n3C)cc1Cl

Further lines, the compound ahead of its results:

Compound	RP-LC retention time [s]
COc1ccc(OC)c2[nH]c(C(=O)N3CCCC3)cc12	823
O=C(Nc1cccn2nc(C3CCC3)nc12)c1ccc(C(F)(F)F)s1	1120
Cc1nnc2ccc(-c3noc(-c4cccc5[nH]ccc45)n3)cn12	843
CC(C)N1CCN(Cc2nc(-c3ccc(N4CCOCC4)nc3)no2)CC1	574
CCc1noc(-c2ccc(-n3cnc(C(=O)NC4CCCCC4)c3)nc2)n1	1110
COC(=O)c1cc(S(=O)(=O)N2CCCC2C(=O)Nc2ccccc2C(F)(F)F)cn1C (stereo not given)	918
CN(C)C(CNS(=O)(=O)c1ccc(Br)s1)c1cn(C)c2ccccc12 (stereo not given)	595
Cc1ccc(S(=O)(=O)N2CCCC2c2nc(-c3cccc(Cl)c3)no2)cc1C (stereo not given)	1270
Cc1ccc(Cn2c(=O)n(CCNC(=O)c3ccco3)c3ncccc32)cc1	760
COc1cc(N)c(Cl)cc1C(=O)CCC1CCN(CCNS(C)(=O)=O)CC1	673
CC1=CC(=O)CC(C)(C)C1(O)/C=C/C(C)=C/C(=O)O (stereo not given)	693
CCc1nncn1C1CCN(C(=O)c2cc(C)cc(C)c2)CC1	655
Cn1c(=O)sc2cc(S(=O)(=O)N3CCC(C(=O)Nc4ccc(F)cc4)CC3)ccc21	854
COc1ccccc1C(=O)NC1(C(F)(F)F)C(=O)N(C2CCCC2)C(C)=C1C(C)=O (stereo not given)	1000
CCN1C(=O)c2cccnc2Sc2cc(NC(=O)c3ccc(Cl)cc3)ccc21	907
Cc1nc(-c2noc(-c3ccc(F)cc3)n2)cn1CC(=O)NCc1ccc(F)cc1	832
O=C(C1CCN(c2ncccc2-c2nc(-c3cccc(Cl)c3)no2)CC1)N1CCOCC1	982
CC(NC(=O)CN1C(=O)C2CCCCN2c2ccc(S(=O)(=O)N3CCCC3)cc21)c1ccccc1 (stereo not given)	956
CCn1cc(S(=O)(=O)N2CCCn3nc(-c4ccncc4)cc3C2)cn1	577
CCCN1CCN(CCCNC(=O)CCc2nc(N3CCCCC3)c3c(CC)noc3n2)CC1	598
COc1ccc(CNC(=O)c2[nH]c3cc(C)sc3c2CN(C)C)cc1OC	641
CCOc1ccc(CNC(=O)CN2CC=C(c3cnn(-c4ccccc4)c3)CC2)cc1	722
CN(C)C(=O)c1cc2c(s1)CCC(C(=O)N1CCN(Cc3ccccc3)CC1)C2 (stereo not given)	556
COCC(=O)NC1CCC12CCN(C(=O)CC(C)C)CC2 (stereo not given)	675
O=C(Nc1ccccc1)C1CCN(S(=O)(=O)c2cc(-c3noc(C4CCC4)n3)cs2)CC1	1080
O=C(Cn1c(=O)n(-c2ccccc2)c2ncccc21)NCCCN1CCOCC1	596
O=C(NCC1CCS(=O)(=O)C1)c1cc(-c2cccs2)[nH]n1 (stereo not given)	607
CCCNC(=O)C1CCN(c2ccc(SCC(=O)Nc3ccc(F)c(F)c3)nn2)CC1	665
COCCC(=O)N1CCc2c(c(-c3nc(C4CC4)no3)nn2C)C1	670
